Patent US7425579B2, “Methods for inhibiting activity of polyamine transporters” (Universite Laval, priority 1998, dated 2008)

Columns and labels:
[1] = tested on: CHO-K1, Jurkat, L1210, MDA-MB-231, ZR-75-1 and MCF-7 cells; assay: Reversal of DFMO-induced cytostasis by exogenous spermidine in a variety of mammalian cell lines; type: cell-based; settings: 50-100 μM BNSD-X
Protocol: FIGS. 5A, 5B, 5C, 5D, 5E and 5F are graphs representing that a compound used in a method according to a preferred embodiment antagonizes rescue of DFMO-induced cytostasis by exogenous spermidine. In particular, CHO-K1 (A), Jurkat (B), L1210 (C), MDA-MB-231 (D), ZR-75-1 (E) and MCF-7 cells (F) were grown to near confluency or saturation (for 4 to 11 d according to the cell line considered) with the indicated concentrations of spermidine in medium containing 1 mM aminoguanidine, in the presence of DFMO (●), BNSD-X (□), DFMO plus BNSD-X (▪), or in the absence of either agent (∘), and total DNA content per culture was then determined. The optimal concentration of either DFMO (1 to 5 mM) or BNSD-X (50 or 100 μM) was used for the each cell line as determined in pilot experiments. Data are presented as the mean±SD for triplicate cultures from one out of at least three identical experiments for each cell line;
(§1) To determine the ability of polyamine transport antagonists to potentiate DFMO-induced inhibition of cell proliferation in the presence of exogenous polyamines, cells were grown for the indicated period in growth medium supplemented with 1 mM aminoguanidine, and either DFMO (1 to 5 mM), the indicated transport inhibitor (50 or 100 μM), or the combination thereof, as well as increasing concentrations of spermidine (0.1 to 300 μM). Fresh medium was added every other day, and cell mass was determined at various time points during the period of exponential growth, or at the end of the experimental period. For the latter experiments, the FBS supplement was replaced with dextran-coated charcoal-treated FBS (5%, v/v) plus 0.5 μg/ml insulin in the case of T-47D, ZR-75-1 and MCF-7 cells (U.S. Pat. No. 6,083,496).

[2] = tested on: mammalian polyamine carrier; assay: Determination of polyamine uptake activity: inhibition of diamine and polyamine transport in T-47D cells; type: cell-based, human; settings: T-47D breast cancer cells; mean±SD; read-out: Ki, inhibition of [3H]putrescine uptake
Protocol: The rate of diamine and polyamine transport was determined in T-47D and ZR-75-1 cells incubated in serum-free RPMI 1640 medium as previously described (U.S. Pat. No. 6,083,496; Covassin et al. (1999) Bioorg. Med. Chem. Lett. 9, 1709-1714), using 20 μM [^3H]putrescine (179 Ci/mol), 5 μM [^3H]spermidine (246 Ci/mol) and 3 μM [^14C]spermine (300-400 mCi/mol) respectively, as substrates for a 20-min assay period. Uptake activity was expressed per amount of DNA as fluorometrically determined using 3,5-diaminobenzoic acid (Simard et al. (1990) Endocrinology 126, 3223-3231). Kinetic parameters of polyamine transport inhibition for the transport antagonists were determined by Lineweaver-Burke analysis of uptake activity in the presence of 0.1 μM [^3H]putrescine, 0.03 μM [^3H]spermidine, and 0.01 μM [^14C]spermine plus increasing concentrations of nonradioactive substrate. For competitive inhibitors, Ki values were estimated by iterative curve fitting for sigmoidal equations describing transport rates in the presence of increasing concentrations of antagonist, using the Cheng-Prusoff equation for competitive inhibition (U.S. Pat. No. 6,083,496).
The ability of BSD and BNSD compounds to inhibit uptake of the main natural substrates of the mammalian polyamine carrier, namely putrescine, spermidine and spermine, was evaluated using T-47D human breast cancer cells (Table 1).
Data are presented as the mean±SD of at least two independent determinations of IC50 values, each based on triplicate determinations of uptake velocity at increasing inhibitor concentrations.
The potency of the polyamines and their xylylated dimers as competitive inhibitors of spermidine transport was evaluated in the T-47D human breast cancer cell line (Table 2).

[3] = tested on: CHO-TOR cells; assay: Potentiation of DFMO-induced cytostasis in CHO-TOR cells; type: cell-based, Chinese hamster; settings: 2 mM DFMO; 4 d
Protocol: FIGS. 9A and 9B are graphs showing that potentiation of DFMO-induced cytostasis by a compound used in a method according to a preferred embodiment of the invention requires a functional polyamine transport system. In particular, CHO-TOR cells (A) and their polyamine transport-deficient mutant subline CHO-MG (B) were grown in medium containing 1 mM aminoguanidine and the indicated concentration of spermidine, in the presence of 2 mM DFMO (●), BNSD-X (□), DFMO+BNSD-X (▪), or vehicle only (∘). Cells were harvested after 4 d for determination of total DNA/well. Data are presented as the mean±SD for triplicate cultures from one representative experiment;
as §1, with “For the latter experiments, the FBS supplement was replaced with dextran-coated charcoal-treated FBS (5%, v/v) plus 0.5 μg/ml insulin in the case of T-47D, ZR-75-1 and MCF-7 cells (U.S. Pat. No. 6,083,496).” left out

[4] = Bioavailability of BNSD-X in drinking water: plasma and erythrocyte concentrations; type: in vivo, CD-1 mice; settings: for Erythrocyte concentration, Spermidine / Erythrocyte concentration, Spermine / Plasma concentration, BNSD-X / Plasma concentration, Putrescine / Plasma concentration, Spermidine / Plasma concentration, Spermine: mean±S.E.
Protocol: To determine the bioavailability of BNSD-X, escalating doses of BNSD-X were dissolved in the drinking water (0, 0.25, 0.5, 1, 2 and 4%, w/v) and were made available to CD-1 mice (n=6/group) ad libitum. Animals were sacrificed after 96 h, and blood was immediately collected to determine the concentration of BNSD-X and polyamines in plasma and erythrocytes by HPLC using the dansylation method (Kabra et al. (1986) J. Chromatogr. 380:19-32).
The suitability of BNSD-X as an in vivo inhibitor of polyamine transport was next assessed in the mouse. We first determined the bioavailability of the compound by adding escalating doses of BNSD-X (0, 0.25, 0.5, 1.0, 2.0 and 4.0% (w/v)) in the drinking water of CD-1 mice. Mice were sacrificed after 4 d and the concentration of BNSD-X and polyamines was determined in plasma and erythrocytes (Tables 3 and 4). […] The plasma concentration reached by the chronic drinking of a 1% (w/v) solution of BNSD-X is thus approximately equal to the Ki value of the drug as an inhibitor of spermidine uptake in breast cancer cells (see Table 1). The drug had no effect on the plasma concentration of either putrescine, spermidine or spermine. […] These pharmacokinetic properties indicate that BNSD-X can be administered by a very convenient route to animals up to a dose sufficient in principle to inhibit the major fraction of the uptake of spermidine from the plasma.

[5] = 0.25% (w/v) BNSD-X in drinking water, 96 h
[6] = 0.50% (w/v) BNSD-X in drinking water, 96 h
[7] = 1.0% (w/v) BNSD-X in drinking water, 96 h

NCCCN(CCCN)Cc1ccc(CN(CCCN)CCCN)cc1 [28a, N,N,N′,N′-tetrakis-(3-aminopropyl)-p-diaminoxylene]
increase of the spermidine concentration required to fully restore cell proliferation upon treatment with DFMO ([1]; DFMO 1 to 5 mM): 10 to 100 fold | effect of the inhibitor alone on cell proliferation ([1]; except L1210 and, to a lesser degree, MCF-7 cells): little or no effect | Ki [2]: 160 ± 30 nM | potentiation of DFMO-induced cytostasis in the absence of exogenous spermidine, CHO-TOR [3]: observed in the parental cell line | Erythrocyte concentration, Spermidine [4, 5]: 1975 ± 236 nmol/L packed erythrocytes | Erythrocyte concentration, Spermine [4, 5]: 60 ± 14 nmol/L packed erythrocytes | Plasma concentration, BNSD-X [4, 5]: 6 ± 3 nM | Plasma concentration, Putrescine [4, 5]: 108 ± 11 nM | Plasma concentration, Spermidine [4, 5]: 147 ± 6 nM | Plasma concentration, Spermine [4, 5]: 24 ± 1 nM | Erythrocyte concentration, Spermidine [4, 6]: 2762 ± 560 nmol/L packed erythrocytes | Erythrocyte concentration, Spermine [4, 6]: 95 ± 12 nmol/L packed erythrocytes | Plasma concentration, BNSD-X [4, 6]: 32 ± 6 nM | Plasma concentration, Putrescine [4, 6]: 106 ± 10 nM | Plasma concentration, Spermidine [4, 6]: 137 ± 18 nM | Plasma concentration, Spermine [4, 6]: 31 ± 6 nM | Erythrocyte concentration, Spermidine [4, 7]: 2079 ± 291 nmol/L packed erythrocytes | Erythrocyte concentration, Spermine [4, 7]: 83 ± 23 nmol/L packed erythrocytes | Plasma concentration, BNSD-X [4, 7]: 129 ± 33 nM | Plasma concentration, Putrescine [4, 7]: 117 ± 19 nM | Plasma concentration, Spermidine [4, 7]: 168 ± 15 nM | Plasma concentration, Spermine [4, 7]: 38 ± 3 nM | water consumption ([4]; BNSD-X concentrations higher than 1.0% (2.0 and 4.0%) in drinking water): decreased drastically | effect on the plasma concentration of putrescine, spermidine or spermine ([4]; BNSD-X in drinking water, 96 h): no effect | accumulation into erythrocytes ([4]; BNSD-X up to 1.0% in drinking water): did not accumulate into erythrocytes | oral absorption ([4]; in drinking water): readily absorbed orally
